{"source": "patent US20200188477A1", "about": "“A MEDICAMENT FOR THE TREATMENT OF DISEASES BY BIOFILM FORMING MICROORGANISMS” (priority 2017, published 2020)", "test_system": "M. smegmatis over-expressing M. tuberculosis PpiB protein", "test": "Biofilm formation assay (crystal violet)", "type": "cell-based, Mycobacterium smegmatis", "details": "Ms_PpiB (Tet+), 7 days, absorbance 550 nm"}
{"smiles": "C[C@H]1O[C@H](O[C@H]2[C@H](O)[C@@H](O)[C@@H](O[C@H]3[C@H](O)[C@@H](O)C(O)O[C@@H]3CO)O[C@@H]2CO)[C@H](O)[C@@H](O)[C@@H]1N[C@H]1C=C(CO)[C@@H](O)[C@H](O)[C@H]1O", "note": "(stereo partly shown) [acarbose]", "values": [{"measurement": "concentration at which treatment significantly reduced biofilm formation", "result": "above 500 μg/ml"}]}
